How the values were obtained:
[1] = molecular target: T1, mouse CD47/SIRPα (Mus musculus, UniProt P97797); assay: Blocking assay, mouse SIRPα protein binding to CHOK1-mCD47 cells; details: concentration gradient; read-out: IC50, blocking mouse CD47/SIRPα (mSirpα binding)
T1 construct: purchased ACRO Biosystem SIA-M5258; host or cells: soluble protein purchased; CD47 on CHOK1-mCD47 cells (lenti-viral transfection)
Procedure: The abilities of small molecule inhibitors (SMIs) (purchased from TargetMol, Shanghai, China) to block the binding of SIRPα protein to CHOK1-CD47 cells or PVR protein to CHOK1-TIGIT cells were determined by flow cytometry, as previously reported. The SMIs at indicated concentrations were incubated with Fc-tagged SIRPα or PVR protein for 30 min at 4°C, followed by incubating with the indicated cells for another 30 min. Human SIRPα protein (SIA-[…], ACRO Biosystem, Beijing, China), mouse SIRPα protein (SIA-[…], ACRO Biosystem, Beijing, China), human PVR protein (CD5-[…], ACRO Biosystem, Beijing, China), and mouse PVR protein (50259-[…], Sino Biological, Beijing, China) were used. PE-conjugated anti-human IgG antibody was used to detect the Fc protein bind to cells. Cells incubated with the Fc proteins and anti-human IgG antibody without the SMIs serve as the positive control. The mean fluorescent intensity (MFI) of each sample was detected and recorded by a flow cytometry. The blocking efficacy of the SMIs was calculated as the equation: (MFI of the positive control-MFI of the SMI)/MFI of the positive control × 100%.

[2] = test system: CT26 tumors; assay: CT26 tumor model with ex vivo T cell analysis; format: in vivo, BALB/c mice; details: for Spleen CD8+IFN-γ (%): splenocytes
Procedure: BABL/c mice were subcutaneously (s.c.) injected with 2 × 10^5 CT26 cells on the right back, and C57BL/6 mice were injected with 1 × 10^6 MC38 cells. One week later, tumor-bearing mice were randomized into indicated groups, and intraperitoneal (i.p.) injected with azelnidipine or normal saline every day for two weeks. Tumor volumes were measured every other day by the (a) length, (b) width, and (c) height and calculated as volume (V) = a × b × c/2. For the combinational model of azelnidipine and radiotherapy (RT), MC38 tumor-bearing mice received irradiation (IR) when the tumors reached 80–100 mm^3. The mice received one dose of 20 Gy irradiation at the tumor local site, and followed by the treatment of azelnidipine.
Tumor-bearing mice were sacrificed at the end of the treatment. The tumors were dissected and digested into single cell with an enzyme cocktail of 100 U/mL collagenase IV; and Dnase I. The infiltration of CD8^+ T cells at the tumor site was detected by flow cytometry by staining of anti-mouse CD45, anti-mouse CD3, anti-mouse CD8α or isotype control. The MDSCs at the tumor site were analyzed by staining of anti-mouse CD45, anti-mouse CD11b, anti-mouse Ly6C, and anti-mouse Ly6G. Spleens and draining lymph nodes were grinded and filtered into a single cell suspension. The tumor-infiltrating lymphocytes (TILs) isolated by Percoll-gradient centrifugation, splenocytes, and cells from draining lymph nodes were also performed the intracellular cytokine staining assays. The cells were stimulated with or without 20 ng/mL of phorbol 12-myristate 13-acetate (PMA, Sigma-Aldrich, St. Louis, MO, USA) and 1 µM ionomycin (Sigma-Aldrich) with the presence of protein transport inhibitor cocktail (eBioscience) for 4 h. The surface marker CD3, CD8, and the intracellular cytokine marker IFN-γ were sequentially stained according to the Foxp3/Transcription Factor Staining Buffer Set (00-5523, eBioscience). The frequency of IFN-γ secreting CD8^+ T cells were counted according to the fluorescence minus one (FMO) control with the isotype control of IFN-γ antibody.
Figure 6 The antitumor effects of azelnidipine in CT26 tumor model. (A) CT26 tumor-bearing mice were i.p. administrated with 2 or 5 mg/kg of azelnidipine each day for 2 weeks as in the schematic diagram. (B) Tumor growth curve of CT26 tumor-bearing mice treated with normal saline or azelnidipine (n = 7). *, p < 0.05, ***, p < 0.001.Two-way ANOVA with Tukey’s multiple-comparisons test were conducted. (C) Representative flow cytometry plots and summary data of the frequency of CD8^+ T cells in the tumor tissues. Representative intracellular IFN-γ staining plots and summary data of the tumor infiltrating CD8^+ T cells (D), tumor-draining lymph node cells (E) and splenocytes (F). The frequency of IFN-γ secreting CD8^+ T cells were counted according to the fluorescence minus one (FMO) control with the isotype control of IFN-γ antibody. *, p < 0.05, **, p < 0.01, Student’s t-test were conducted. TEXT PRINTED IN THE PICTURE: (C) NS: Tumor CD3^+CD8^+ (%): 6.27 | (C) Azelnidipine: Tumor CD3^+CD8^+ (%): 7.46 (2 mg/kg); Tumor CD3^+CD8^+ (%): 9.35 (5 mg/kg) | (D) NS: Tumor CD8^+IFN-γ (%): 14.8 | (D) Azelnidipine: Tumor CD8^+IFN-γ (%): 12.4 (2 mg/kg); Tumor CD8^+IFN-γ (%): 20.0 (5 mg/kg) | (E) NS: dLN CD8^+IFN-γ (%): 0.45 | (E) Azelnidipine: dLN CD8^+IFN-γ (%): 0.53 (2 mg/kg); dLN CD8^+IFN-γ (%): 1.10 (5 mg/kg) | (F) NS: Spleen CD8^+IFN-γ (%): 5.32 | (F) Azelnidipine: Spleen CD8^+IFN-γ (%): 7.71 (2 mg/kg); Spleen CD8^+IFN-γ (%): 7.91 (5 mg/kg) DOUBTS OF THE COPYIST ABOUT THIS PICTURE: Panels C-F: the flow plots are headed only 'NS', '2 mg/kg' and '5 mg/kg'. The name 'Azelnidipine' is taken from panels A and B of the same picture. / Panels C-F: the numbers in the flow plots have no measure or unit beside them. The measure (e.g. 'CD3^+CD8^+ (%)') and the tissue ('Tumor', 'dLN', 'Spleen') are taken from the bar chart in the same panel. / NS is the control group. […]

T1 sequence (P97797 32-373 limits assumed): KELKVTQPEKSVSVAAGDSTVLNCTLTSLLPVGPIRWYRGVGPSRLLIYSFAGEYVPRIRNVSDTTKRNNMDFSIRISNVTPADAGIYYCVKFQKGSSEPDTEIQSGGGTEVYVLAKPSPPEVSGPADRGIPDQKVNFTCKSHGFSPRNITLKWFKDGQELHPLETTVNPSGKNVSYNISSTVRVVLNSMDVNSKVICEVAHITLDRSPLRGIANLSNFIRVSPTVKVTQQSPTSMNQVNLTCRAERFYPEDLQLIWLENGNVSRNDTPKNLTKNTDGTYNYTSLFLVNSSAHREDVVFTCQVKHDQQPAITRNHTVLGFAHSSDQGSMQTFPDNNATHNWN

- IC50 [1]: ~37 µM
SMILES: CC1=C(C(=O)OC(C)C)C(c2cccc([N+](=O)[O-])c2)C(C(=O)OC2CN(C(c3ccccc3)c3ccccc3)C2)=C(N)N1 (stereo not shown) [Azelnidipine]
- Spleen CD8+IFN-γ (%) ([2]; 2 mg/kg i.p. (low dosage)): enhance
- Spleen CD8+IFN-γ (%) ([2]; 5 mg/kg i.p. (high dosage)): significantly boost
- dLN CD8+IFN-γ (%) ([2]; 5 mg/kg i.p. (high dosage), tumor-draining lymph node): significantly boost
- CT26 tumor growth ([2]; 2 and 5 mg/kg i.p. each day for 2 weeks): significantly restrict
- IFN-γ secretion function of the tumor infiltrating CD8+ T cells ([2]; dose not given): enhanced
- frequency of CD8+ T cells in the tumor tissues ([2]; dose not given): remarkably increase
